Assay results published in patent US20260102505A1, “ANTI-CD45-IGN ANTIBODY DRUG CONJUGATES AND USES THEREOF” (Vor Biopharma Inc., priority 2022, published 2026).

How the values were obtained:
[1] = tested on: erythroid-specific BCL11A enhancer-edited CD34+ cells; assay: Conditioning and engraftment of BCL11A enhancer-edited CD34+ cells in rhesus macaques; assay type: in vivo; details: busulfan 5.5 mg/kg×4 days, 25-34 weeks
Procedure: Rhesus macaques were treated with a single dose of anti-CD45-ADC (Ab5-DGN549) at either 0.2 or 0.3 mg/kg followed by engraftment of erythroid-specific BCL11A enhancer-edited CD34+ cells.
For transplant studies, rhesus macaque CD34+ HSPCs were electroporated with 3×NLS SpCas9 protein and two RNAs targeting the +55 and +58 BCL11A erythroid enhancers.
A similar experiment was performed in Rhesus macaques. Rhesus macaques were treated with either 0.2 or 0.3 mg/kg of an anti-CD45-ADC as a single IV bolus. At day 10, the macaques underwent an HSC transplant with autologous gene-edited BCL11a enhancer −/− cells, and were monitored over time (FIG. 15A). A cohort of macaques were treated with Busulfan (5.5-6 mg/kg QDx4) as a control.
Two additional rhesus macaques were conditioned with 0.2 mg/kg anti-CD45 ADC and infused with autologous HSPCs transduced with a barcoded lentiviral vector.

[2] = tested on: recurrent angioimmunoblastic T-cell lymphoma patient-derived xenograft; assay: PDX model of recurrent angioimmunoblastic T-cell lymphoma, survival; assay type: in vivo, mice
Procedure: Anti-CD45-ADC was further tested in a PDX model of recurrent angioimmunoblastic T-cell lymphoma. A single dose of anti-CD45-ADC (Ab5-DGN549) was administered to a group of mice when tumor levels reached ˜10% in peripheral blood, around day 27. Control groups received either PBS, isotype-ADC, CD45 mAb, ARA-C at 30 mg/kg QDx5, or Dexamethasone at 5 mg/kg Q3Dx10. Long-term disease survival was monitored.

[3] = tested on: relapsed/refractory acute myeloid leukemia (AML) patient-derived xenograft; assay: PDX model of relapsed/refractory AML, survival; assay type: in vivo, mice; details: R/R AML PDX; 30 mg/kg QDx5
Procedure: Anti-malignancy activity of an anti-CD45-ADC was assessed using a patient-derived xenograft (PDX) model of relapsed/refractory acute myeloid leukemia (AML). A single dose of anti-CD45-ADC (Ab5-DGN549) was administered to a group of mice when tumor levels reached ˜10% in peripheral blood, around day 24. Control groups received either PBS, isotype-ADC, CD45 mAb, or ARA-C at 30 mg/kg QDx5. Long-term, disease-free survival was monitored.
The anti-malignancy activity was assessed in a patient-derived xenograft (PDX) model of relapsed/refractory acute myeloid leukemia (AML).

## CS(=O)(=O)OCCCCOS(C)(=O)=O [Busulfan, reference compound]
[1]
  T cell editing: 8-31%

## C[C@@H]1C[C@H]2[C@@H]3CCC4=CC(=O)C=C[C@]4(C)[C@@]3(F)[C@@H](O)C[C@]2(C)[C@@]1(O)C(=O)CO [Dexamethasone]
[2]; 5 mg/kg Q3Dx10
  median survival: 48 days

## Nc1ccn([C@@H]2O[C@H](CO)[C@@H](O)[C@@H]2O)c(=O)n1 [ARA-C, reference compound]
[2]; 30 mg/kg QDx5
  median survival: 48 days
[3]
  median survival: 64 days
